Reference: patent US20170014352A1, “WATER-DISPERSIBLE AMORPHOUS PARTICLES AND METHOD FOR PREPARING SAME” (The University of Tokyo, priority 2014, published 2017)
Counter-ions that a name gives are not always drawn. Like-named read-outs stand apart in the source and are kept apart here.

How the values were obtained:
[1] = cited from earlier work; for logP: measured value described in the literature; for log P: starting organic compound, Examples 9 and 10
[2] = particle size (Z-average, hydrodynamic diameter) and PDI by dynamic light scattering (DLS); assay type: physicochemical
Source text: The “particle size” herein means an average particle size, and is defined as a particle size (Z-average) measured by use of a dynamic light scattering (Dynamic Light Scattering: DLS) method. The particle size thus measured is also referred to as “hydrodynamic diameter”.
The “polydispersity index (Polydispersity index: PDI)” herein is an index for evaluating the width of a particle size distribution, and is in the range from 0 to 1. A value of 0 represents an ideal suspension without any size distribution. A distribution having a PDI value of 0.1 or less is referred to as “monodispersity”, and on the other hand, a dispersion having a value between 0.1 and 0.3 is considered to have a narrow size distribution. A dispersion having a PDI of more than 0.5 is considered to be polydisperse. The polydispersity index is calculated from the value obtained by use of a dynamic light scattering (Dynamic Light Scattering: DLS) method.
Measurement by a DLS method was performed by use of a laser light scattering apparatus (Zetasizer Nano ZS manufactured by Malvern instruments Ltd.). A scanning electron microscope (SEM) image was obtained by use of Magellan 4001 manufactured by FEI Company. Powder X-ray diffraction was performed by use of SmartLab manufactured by Rigaku Corporation. FDU-1200 manufactured by EYELA was used for a freeze-dryer.

[3] = at 25° C.; cited from earlier work
[4] = Example 6: 100 μM THF solution of compound injected into water, THF distilled off, water dispersion
[5] = Example 7: water injected into THF solution of compound (concentration 100 W), water dispersion

In the case of `CC(C)CCC[C@@H](C)[C@H]1CC[C@H]2[C@@H]3CC=C4C[C@@H](O)CC[C@]4(C)[C@H]3CC[C@]12C` [Cholesterol, cholesterol], the logP ([1]; Table 1) is given as 9.61, the logP ([1]; Table 2) is given as 9.61 and the PDI [2, 4] is given as 0.27. The “Particle size (nm)” value [2, 4] was 228 nm, the PDI [2, 5] was 0.02 and the “Particle size (nm)” value [2, 5] was 165 nm.

For `COc1ccc(CC(C)NCC(O)c2ccc(O)c(NC=O)c2)cc1` (stereo not shown) [Formoterol fumarate hydrate], the “log P” value [1] is given as 2.0 and the solubility in water [3] is given as 170 µg/mL.

For `Cc1c(OCC(F)(F)F)ccnc1C[S+]([O-])c1nc2ccccc2[nH]1` (stereo not shown) [Lansoprazole], the “log P” value [1] is given as 2.58 and the solubility in water [3] is given as “less than 0.1 mg/mL”.

With `c1ccc2cc3cc4cc5ccccc5cc4cc3cc2c1` [Pentacene, pentacene] the PDI [2, 5] was 0.02 and the “Particle size (nm)” value [2, 5] was 116 nm.

With `c1cc2ccc3cccc4ccc(c1)c2c34` [Pyrene, pyrene] the PDI [2, 5] was 0.13 and the “Particle size (nm)” value [2, 5] was 120 nm.

In the case of `CCCc1nc2c(C)cc(-c3nc4ccccc4n3C)cc2n1Cc1ccc(-c2ccccc2C(=O)O)cc1` [Telmisartan, telmisartan, reference compound], the logP ([1]; Table 2) is listed as 6.48, the PDI [2, 5] is listed as 0.34 and the “Particle size (nm)” value [2, 5] is listed as 10 nm.

For pyrenecarboxylic acid, the PDI [2] was 0.14 and the “Particle size (nm)” value [2] was 76 nm.
